Measured values taken from US9926297B2, “Bicyclic AZA compounds as muscarinic M1 receptor and/or M4 receptor agonists” (Heptares Therapeutics Limited, priority 2014, dated 2018).
Like-named read-outs stand apart in the source and are kept apart here.

How the values were obtained:
[1] = molecular target: T1, human muscarinic M4 receptor (Homo sapiens, UniProt P08173); test: Alphascreen Surefire phospho-ERK1/2 functional assay, M4; format: cell-based; settings: for EC50 / % Emax cf. ACh, M4: CHO cells stably expressing human M4; for EC50: phospho-ERK1/2, * = variable results, read-out: pEC50 M4 (converted); for Emax: CHO
T1 construct: expressed in transfected cells
T1 sequence (P08173 1-479): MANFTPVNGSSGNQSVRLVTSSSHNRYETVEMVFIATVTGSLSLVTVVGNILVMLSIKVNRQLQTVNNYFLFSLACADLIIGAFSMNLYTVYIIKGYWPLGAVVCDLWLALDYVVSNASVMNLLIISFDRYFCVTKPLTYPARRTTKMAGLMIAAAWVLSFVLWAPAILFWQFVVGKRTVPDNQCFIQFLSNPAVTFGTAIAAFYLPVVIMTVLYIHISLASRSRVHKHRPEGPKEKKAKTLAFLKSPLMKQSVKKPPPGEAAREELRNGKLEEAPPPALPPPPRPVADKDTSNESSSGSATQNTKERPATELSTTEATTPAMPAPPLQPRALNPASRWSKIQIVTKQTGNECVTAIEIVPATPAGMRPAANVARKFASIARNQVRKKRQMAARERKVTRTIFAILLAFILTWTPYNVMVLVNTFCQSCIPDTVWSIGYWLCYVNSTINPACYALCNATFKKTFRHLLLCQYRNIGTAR
Procedure: CHO cells stably expressing the human muscarinic M1, M2, M3 or M4 receptor were plated (25K/well) onto 96-well tissue culture plates in MEM-alpha+10% dialysed FBS. Once adhered, cells were serum-starved overnight. Agonist stimulation was performed by the addition of 5 μL agonist to the cells for 5 min (37° C.). Media was removed and 50 μL of lysis buffer added. After 15 min, a 4 μL sample was transferred to 384-well plate and 7 μL of detection mixture added. Plates were incubated for 2 h with gentle agitation in the dark and then read on a PHERAstar plate reader.
pEC50 and Emax figures were calculated from the resulting data for each receptor subtype.

[2] = molecular target: T2, human muscarinic M1 receptor (Homo sapiens, UniProt P11229); test: Alphascreen Surefire phospho-ERK1/2 functional assay, M1; format: cell-based; settings: for EC50: read-out: pEC50 M1 (converted); for Emax: CHO
T2 sequence (P11229 1-460): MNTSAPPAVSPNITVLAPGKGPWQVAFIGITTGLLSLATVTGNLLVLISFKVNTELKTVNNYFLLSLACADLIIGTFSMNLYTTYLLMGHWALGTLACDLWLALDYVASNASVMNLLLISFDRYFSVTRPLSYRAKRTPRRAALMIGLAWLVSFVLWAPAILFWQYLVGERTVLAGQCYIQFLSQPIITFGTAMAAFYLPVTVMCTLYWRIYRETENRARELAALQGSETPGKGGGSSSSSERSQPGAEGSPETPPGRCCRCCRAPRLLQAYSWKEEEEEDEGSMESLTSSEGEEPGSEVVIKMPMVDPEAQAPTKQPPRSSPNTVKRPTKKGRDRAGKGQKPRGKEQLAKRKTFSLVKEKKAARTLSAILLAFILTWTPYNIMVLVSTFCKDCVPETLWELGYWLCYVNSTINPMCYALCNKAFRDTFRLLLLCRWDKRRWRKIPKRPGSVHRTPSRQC

[3] = read-out: % Emax cf. ACh, M4, CHO cells stably expressing human M4, relative to ACh
[4] = CHO cells stably expressing human M1, phospho-ERK1/2, * = variable results
[5] = read-out: % Emax cf. ACh, M1, CHO cells stably expressing human M1, relative to ACh
[6] = CHO cells stably expressing human M1, relative to ACh

Row | SMILES | EC50 [1] | Emax [1, 3] | EC50 [2, 4] | Emax [2, 5] | % Emax cf. ACh, M4 ([1]; relative to ACh) | pEC50 M1 [2, 4] | % Emax cf. ACh, M1 [2, 6] | Emax ([1]; read-out: % Emax cf. ACh, M4) | Emax ([2]; read-out: % Emax cf. ACh, M1)
1 | CCOC(=O)N1CCC2(CC(N3CCC(c4nnnn4CC)CC3)C2)C1 (single isomer, unassigned) [1-65 Isomer 2, ethyl 2-[4-(1-ethyl-1H-tetrazol-5-yl)piperidin-1-yl]-6-azaspiro[3.4]octane-6-carboxylate] | 251 nM | 73% | > 20000 nM | 60% |  |  |  |  | 
2 | CCOC(=O)N1CCC2(CC(N3CCC([C@@H]4CCCN4CC(=O)N(C)C)CC3)C2)C1 (single isomer, unassigned) [2-73 Isomer 2] | 316 nM | 43% | > 20000 nM | 14% |  |  |  |  | 
3 | COC(=O)N1CCC2(CC(N3CCC(C4CCCN4C(=O)OC)CC3)C2)C1 (single isomer, unassigned) [2-10 Isomer 2, methyl 2-{4-[1-(methoxycarbonyl)pyrrolidin-2-yl]piperidin-1-yl}-6-azaspiro[3.4]octane-6-carboxylate] | 200 nM | 50% | > 20000 nM | 19% |  |  |  |  | 
4 | CCOC(=O)N1CCC2(CC(N3CCC(n4cncn4)CC3)C2)C1 (single isomer, unassigned) [1-36 Isomer 2, ethyl 2-[4-(1H-1,2,4-triazol-1-yl)piperidin-1-yl]-6-azaspiro[3.4]octane-6-carboxylate] | 251 nM | 47% | 5010 nM | 73% |  |  |  |  | 
5 | CCOC(=O)N1CCC2(CC(N3CCC(C4CCCCN4C(=O)CC)CC3)C2)C1 (single isomer, unassigned) [4-19 Isomer 2, ethyl 2-(1-propanoyl-2,4′-bipiperidin-1′-yl)-6-azaspiro[3.4]octane-6-carboxylate] | 251 nM | 38% | > 20000 nM | 7% |  |  |  |  | 
6 | CCOC(=O)N1CCC2(CC(N3CCC(N4CCCCC4)CC3)C2)C1 (single isomer, unassigned) [4-10 Isomer 2, ethyl 2-(1,4′-bipiperidin-1′-yl)-6-azaspiro[3.4]octane-6-carboxylate] | 251 nM | 31% | > 20000 nM | 7% |  |  |  |  | 
7 | CCOC(=O)N1CCC2(CC(N3CCC(c4c(C)ccnc4OC)CC3)C2)C1 (single isomer, unassigned) [3-11 Isomer 2, ethyl 2-[4-(2-methoxy-4-methylpyridin-3-yl)piperidin-1-yl]-6-azaspiro[3.4]octane-6-carboxylate] | 25.1 nM | 58% | 39.8 nM | 36% |  |  |  |  | 
8 | CCOC(=O)N1CCC2(CC(N3CCC(N4C(=O)CC[C@@H]4C)CC3)C2)C1 (single isomer, unassigned) [2-115 Isomer 2] | 25.1 nM | 78% | 200 nM | 68% |  |  |  |  | 
9 | CCOC(=O)N1CCC2(CC(N3CCC(N4CCOCC4)CC3)C2)C1 (single isomer, unassigned) [4-11 Isomer 2, ethyl 2-[4-(morpholin-4-yl)piperidin-1-yl]-6-azaspiro[3.4]octane-6-carboxylate] | 200 nM | 55% | > 20000 nM | 54% |  |  |  |  | 
10 | CCOC(=O)N1CCC2(CC(N3CCC(N4CCC[C@H]4C(=O)NC)CC3)C2)C1 (single isomer, unassigned) [2-85 Isomer 2] | > 20000 nM | 3% | 2510 nM | 66% |  |  |  |  | 
11 | CCOC(=O)N1CCC2(CC(N3CCC(N4C(=O)CC[C@H]4C)CC3)C2)C1 (single isomer, unassigned) [2-113 Isomer 2] | 15.8 nM | 113% | 126 nM | 100% |  |  |  |  | 
12 | CCOC(=O)N1CCC2(CC(N3CCC(c4c(C)cc[nH]c4=O)CC3)C2)C1 (single isomer, unassigned) [3-14 Isomer 2, ethyl 2-[4-(4-methyl-2-oxo-1,2-dihydropyridin-3-yl)piperidin-1-yl]-6-azaspiro[3.4]octane-6-carboxylate] | 251 nM |  |  |  | 75% | 5.5 | 29% |  | 
13 | [2H]C([2H])(C)OC(=O)N1CCC2(CC(N3CCC(n4cccn4)CC3)C2)C1 (single isomer, unassigned) [1-68 Isomer 2, (1,1-^2H2)ethyl 2-[4-(1H-pyrazol-1-yl)piperidin-1-yl]-6-azaspiro[3.4]octane-6-carboxylate] | 6.31 nM | 98% | 79.4 nM | 91% |  |  |  |  | 
14 | CCOC(=O)N1CCC2(CC(N3CCC(OC)(c4nccn4C)CC3)C2)C1 (single isomer, unassigned) [1-40 Isomer 2, ethyl 2-[4-methoxy-4-(1-methyl-1H-imidazol-2-yl)piperidin-1-yl]-6-azaspiro[3.4]octane-6-carboxylate] | 158 nM |  | > 20000 nM |  |  |  |  | 50% | 904%
15 | CCOC(=O)N1CCC2(CC(N3CCC([C@@H]4CCCN4c4nnc(C)o4)CC3)C2)C1 (single isomer, unassigned) [2-138 Isomer 2] | 39.8 nM | 44% | > 20000 nM | 17% |  |  |  |  | 
16 | CCOC(=O)N1CCC2(CC(N3CCC(N4CCCC4c4ccon4)CC3)C2)C1 (single isomer, unassigned) [2-127 Isomer 2, ethyl 2-{4-[2-(1,2-oxazol-3-yl)pyrrolidin-1-yl]piperidin-1-yl}-6-azaspiro[3.4]octane-6-carboxylate] | 10 nM | 72% | > 20000 nM | 11% |  |  |  |  | 
17 | CCn1nccc1C1CCN(C2CC3(CCN(C(=O)OC)C3)C2)CC1 (single isomer, unassigned) [1-46 Isomer 2, methyl 2-[4-(1-ethyl-1H-pyrazol-5-yl)piperidin-1-yl]-6-azaspiro[3.4]octane-6-carboxylate] | 200 nM | 63% | > 20000 nM | 35% |  |  |  |  | 
18 | CCOC(=O)N1CCC2(CC(N3CCC([C@@H]4CCCN4C(=O)N4Cc5cccnc5C4)CC3)C2)C1 (single isomer, unassigned) [2-133 Isomer 1] | 10 nM |  | > 20000 nM |  | 70% |  | 37% |  | 
19 | CCOC(=O)N1CCC2(CC(N3CCC(c4c(C)cnn4CC)CC3)C2)C1 (single isomer, unassigned) [1-59 Isomer 2, ethyl 2-[4-(1-ethyl-4-methyl-1H-pyrazol-5-yl)piperidin-1-yl]-6-azaspiro[3.4]octane-6-carboxylate] | 100 nM | 76% | 398 nM | 38% |  |  |  |  | 
20 | CCOC(=O)N1CCC2(CC(N3CCC(n4ccnn4)CC3)C2)C1 (single isomer, unassigned) [1-35 Isomer 2, ethyl 2-[4-(1H-1,2,3-triazol-1-yl)piperidin-1-yl]-6-azaspiro[3.4]octane-6-carboxylate] | 200 nM | 61% | 398 nM | 80% |  |  |  |  | 
21 | CCOC(=O)N1CCC2(CC(N3CCC(c4nc(C#N)c[nH]4)CC3)C2)C1 (single isomer, unassigned) [1-4 Isomer 2, ethyl 2-[4-(4-cyano-1H-imidazol-2-yl)piperidin-1-yl]-6-azaspiro[3.4]octane-6-carboxylate] | 251 nM | 67% | 1000 nM | 55% |  |  |  |  | 
22 | CCOC(=O)N1CCC2(CC(N3CCC(N4CCC[C@H]4C(F)(F)F)CC3)C2)C1 (single isomer, unassigned) [2-101 Isomer 2] | 631 nM | 98% | 10000 nM | 70% |  |  |  |  | 
23 | COC(=O)N1CCC2(CC(N3CCC(C4CCCNC4=O)CC3)C2)C1 (single isomer, unassigned) [4-2 Isomer 4, methyl 2-(2-oxo-3,4′-bipiperidin-1′-yl)-6-azaspiro[3.4]octane-6-carboxylate] | 79.4 nM | 42% | 794 nM | 94% |  |  |  |  | 
24 | CCOC(=O)N1CCC2(CC(N3CCC(N4C(=O)OC[C@H]4CC)CC3)C2)C1 (single isomer, unassigned) [2-119 Isomer 2] | 126 nM | 84% | 2510 nM | 85% |  |  |  |  | 
25 | CCOC(=O)N1CCC2(CC(N3CCC([C@@H]4CCCN4CCOC)CC3)C2)C1 (single isomer, unassigned) [2-71 Isomer 2] | 126 nM | 56% | 5010 nM | 39% |  |  |  |  | 
